Test results published in patent US11667630B2, “Nitrogen-containing 6-membered cyclic compound” (Asahi Kasei Pharma Corporation, priority 2017, dated 2023).

Columns and labels:
[1] = system: rat femur closed fracture model; assay: Fracture healing-promoting action in rat femur closed fracture model; type: in vivo; conditions: SD rats; for Bone union rate after 25 days (%): judged on soft X-ray images; for Maximum torque (N · cm): torsion test of femur four weeks after fracture
Text: In order to investigate fracture healing-promoting action of the compounds of the present invention, influence of injection of microspheres containing a test compound at a fracture site of a rat femur closed fracture model was confirmed.
Thirteen weeks old female SD rats (Japan SLC) were fixed in the side lying position under triple anesthesia (medetomidine hydrochloride, midazolam, and butorphanol tartrate). After hair of a region from the left knee to the femoral region was shaved with a hair clipper, and disinfection treatment was performed with povidone-iodine listed in Japanese Pharmacopoeia (Isodine solution for animals, 20 mg of povidone-iodine listed in Japanese Pharmacopoeia in 1 mL, Meiji Seika Pharma), the skin of the knee part and the medial great muscle of the lateral part of the patella were excised, and the patella was shifted from the femoral head. A drill bit attached to a trephine was put on the intercondylar fossa of the exposed femoral head, and manually rotated to make a bore. A Kirschner wire (Mizuho Co., Ltd.) having a diameter of 1.2 mm preliminarily cut in a length of 31 mm was inserted into the medullary cavity of the femur through the bore. Then, the left femoral region was fixed on a three-point bending test jig of a small desktop universal testing machine (EZ Test, Shimadzu Corp.), and closed fracture of the femoral diaphyseal was caused by giving a dynamic load. Whether fracture was successfully introduced or not was confirmed by confirming generation of a complete transverse fracture in the femoral diaphyseal on an X-ray image obtained with a soft X-ray generator (M-100W, Softex) and a digital X-ray sensor (NX-04, RF Co., Ltd.). A microsphere suspension obtained by suspending microspheres (prepared according to the method of Preparation Example 3) containing a test compound (compound of Example 23) in a CMC solution was injected into the fracture part in a volume of 100 μL as the administration volume (containing 100 or 300 μg of the test compound). As the control group, a drug liquid obtained by suspending the microspheres not containing the aforementioned test compound in the CMC solution (100 μL) alone was administered. One, two, and three weeks after the generation of fracture, soft X-ray images were taken under isoflurane anesthesia, and the areas of the callus part in the X-ray images were quantified by using Image J. Four weeks after the generation of fracture, soft X-ray images were taken under triple anesthesia, the animals were fixed in the supine position, and euthanized by bleeding, and the left femurs were extracted. […] The femur samples were cryopreserved until implementation of a bone strength test, and torsional strength was measured on the test day by using a bone strength measurement apparatus (MZ-500S, Maruto Instrument Co., Ltd.).

human EP4 receptor = human EP4 receptor (Homo sapiens, UniProt P35408); assay: Measurement of EP4 agonist activity (cAMP production); type: cell-based; set-up: expressed in transfected cells; host or cells: HEK293; conditions: cAMP production in HEK293 cells stably expressing human EP4 receptor; average values where measured two or more times
[2] = microspheres (Preparation Example 3) containing compound of Example 23, 100 μg injected into fracture part
[3] = microspheres (Preparation Example 3) containing compound of Example 23, 300 μg injected into fracture part
[4] = microspheres containing compound of Example 23, 100 μg
[5] = microspheres containing compound of Example 23, 300 μg

Chain of human EP4 receptor (P35408 whole entry): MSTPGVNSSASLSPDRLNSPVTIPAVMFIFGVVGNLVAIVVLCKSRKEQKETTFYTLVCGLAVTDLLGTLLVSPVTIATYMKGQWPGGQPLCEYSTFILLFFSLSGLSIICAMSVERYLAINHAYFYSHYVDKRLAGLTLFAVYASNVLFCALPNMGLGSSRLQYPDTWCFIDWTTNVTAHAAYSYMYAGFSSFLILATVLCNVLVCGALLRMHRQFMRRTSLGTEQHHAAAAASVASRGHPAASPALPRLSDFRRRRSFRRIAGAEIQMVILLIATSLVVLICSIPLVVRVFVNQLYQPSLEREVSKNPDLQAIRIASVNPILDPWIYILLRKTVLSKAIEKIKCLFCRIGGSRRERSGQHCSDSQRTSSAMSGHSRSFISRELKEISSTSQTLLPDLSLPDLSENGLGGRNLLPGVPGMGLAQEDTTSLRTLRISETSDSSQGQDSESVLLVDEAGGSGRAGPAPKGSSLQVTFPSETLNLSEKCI

SMILES: O=C(O)c1ccc(CCN2C(=O)SCCN2CC[C@@H](O)Cc2cccc(C#Cc3ccsc3)c2)s1 [Example 23, (S)-5-(2-(4-(3-Hydroxy-4-(3-(thiophen-3-ylethynyl)phenyl)butyl)-2-oxo-1,3,4-thiadiazinan-3-yl)ethyl)thiophene-2-carboxylic acid]
- Callus area (mm^2) One week after fracture [1, 2]: 5.24 ± 2.87 mm^2
- Callus area (mm^2) Three weeks after fracture [1, 2]: 35.9 ± 6.3 mm^2
- Callus area (mm^2) Two weeks after fracture [1, 2]: 28.6 ± 4.7 mm^2
- Callus area (mm^2) One week after fracture [1, 3]: 6.01 ± 2.75 mm^2
- Callus area (mm^2) Three weeks after fracture [1, 3]: 33.8 ± 6.8 mm^2
- Callus area (mm^2) Two weeks after fracture [1, 3]: 28.9 ± 3.8 mm^2
- Bone union rate after 25 days (%) [1, 4]: 90.0%
- Maximum torque (N · cm) [1, 4]: 20.4 ± 7.1 N · cm
- Bone union rate after 25 days (%) [1, 5]: 85.7%
- Maximum torque (N · cm) [1, 5]: 26.3 ± 11.7 N · cm
- EC50 (human EP4 receptor): 0.033 nM
